Source: patent publication US20250290928A1, “METHOD, KIT AND DEVICE FOR DETECTING EXTRACELLULAR VESICLES” (priority 2022, published 2025)
No end group written: not given here. *: point of attachment. 5FAM = O=C1OC2(c3ccc(O)cc3Oc3cc(O)ccc32)c2ccc(C(=O)*)cc21; TQ2 = quencher

How the values were obtained:
[1] = tested on: MMP in the MDA-MB-231-derived extracellular vesicles; assay: Evaluation of MMP activity of MDA-MB-231-derived extracellular vesicles with 96-well plate (SensoLyte 520 MMP Substrate Sampler Kit); format: biochemical, Human; conditions: for Fluorescence change after 1 hour of reaction at 30° C.: Example 34, EV 4 μg/mL, reporter 5 μM, buffer (4); for Fluorescence change after 2 hours of reaction at 30° C.: MP, EV 3.3 μg/mL
Experimental: (§1) 50 μL of the MMP detection solution was added to 50 μL of each of the samples, a reaction was performed at 30° C., and MMP activity was evaluated.
(§2) 50 μL of each of the MMP detection solutions was added to 50 μL of each of the samples, a reaction was performed at 30° C., and MMP activity was evaluated.

[2] = tested on: MMP in the A549-derived extracellular vesicles; assay: Evaluation of MMP activity of A549-derived extracellular vesicles with 96-well plate (SensoLyte 520 MMP Substrate Sampler Kit); format: biochemical, Human; conditions: Example 34, EV 4 μg/mL, reporter 5 μM, buffer (4)
Experimental: The MMP14 activity was evaluated with a 96-well plate (manufactured by Thermo Fisher Scientific Inc., model number: 137101). A fluorescence intensity was measured with a fluorescence plate reader (Synergy MX, manufactured by BioTek Instruments, Inc.) at […] every 5 min for 1 hour. For measurement wavelengths, an excitation wavelength of 485±20 nm and a fluorescence wavelength of 528±20 nm were used.
as §1

[3] = tested on: MMP in the MDA-MB-231-derived extracellular vesicles; assay: Digital detection of MDA-MB-231-derived extracellular vesicles through MMP activity in wells (SB substrates); format: biochemical, Human; conditions: for Expected value λ / Number of positives / Positive ratio: 6 h; for Extracellular vesicle concentration / Expected value λ (×1): Example 35, 6 h; for Extracellular vesicle concentration: at a concentration of x1, 50 fL; for Expected value λ (×1): from power approximation equation
Experimental: The concentration of the solution is 10 μg/mL. […] The solution was further diluted 2-fold to prepare a standard sample at a concentration of x1/4, further diluted 3-fold to prepare a standard sample at a concentration of x1/12, and further diluted 3-fold to prepare a standard sample at a concentration of x1/36. Thus, the standard samples with four concentrations were prepared.
In addition, 1 mM Alexa Fluor 647 was used as a standard fluorescent substance, and each of the MMP14 detection solutions contained the standard fluorescent substance at a final concentration of 2 μM.
as §2

[4] = tested on: MMP in the A549-derived extracellular vesicles; assay: Digital detection of A549-derived extracellular vesicles through MMP activity in wells (SB substrates); format: biochemical, Human; conditions: for Extracellular vesicle concentration: at a concentration of x1, 50 fL; for Expected value λ / Number of positives / Positive ratio: Example 36, EV 5 μg/mL, reporter 5 μM, 30° C.
Experimental: (§3) The concentration of the solution is 10 μg/mL.
50 μL of each of the MMP detection solutions was added to 50 μL of the sample to provide a reaction solution for wells.

[5] = biological target: T1, MMP14 in the MDA-MB-231-derived extracellular vesicles (Homo sapiens, UniProt P50281); assay: Evaluation of MMP14 activity of MDA-MB-231-derived extracellular vesicles with 96-well plate; format: biochemical
T1 construct: in terms of intact MMP14 with a molecular weight of 70 kDa
Experimental: A relative fluorescence unit difference ΔRFU was calculated by subtracting the measured value of the sample for BG measurement from the measured value of each of the samples.
The concentration of the solution is 41.7 μg/mL. The concentration of the solution was set to x1, and 2-fold serial dilution was performed to prepare standard samples with six concentrations.
50 μL of the MMP14 detection solution was added to 50 μL of each of the samples, a reaction was performed at 37° C., and MMP14 activity was evaluated.
as §3
50 μL of each of the MMP14 detection solutions was added to 50 μL of each of the samples, a reaction was performed at 37° C., and MMP14 activity was evaluated. […]
The concentration of the solution is 20 μg/mL. The concentration of the solution was set to x1, and 3-fold serial dilution was performed to prepare standard samples with three concentrations.
The concentration of the solution is 8 μg/mL.
50 μL of each of the MMP14 detection solutions was added to 50 μL of the sample, a reaction was performed at 37° C., and MMP14 activity was evaluated. […]
50 μL of the MMP14 detection solution was added to 50 μL of each of the samples, a reaction was performed at 30° C., and MMP14 activity was evaluated.
The MMP14 activity of the extracellular vesicles was evaluated with a 96-well plate (137101). A fluorescence intensity was measured with a fluorescence plate reader (Synergy) at 30° C. every 5 minutes for 2 hours. For measurement wavelengths, an excitation wavelength of 545±20 nm and a fluorescence wavelength of 588±20 nm were used. A relative fluorescence unit difference (ΔRFU) was calculated by subtracting the measured value of the sample for BG measurement from the measured value of each of the samples.
50 μL of each of the MMP14 detection solutions was added to 50 μL of each of the samples, a reaction was performed at 30° C., and MMP14 activity was evaluated.

[6] = biological target: T1, MMP14 in the MDA-MB-231-derived extracellular vesicles; assay: Digital detection of MDA-MB-231-derived extracellular vesicles through MMP14 activity in wells (microcompartments); format: biochemical; conditions: for Extracellular vesicle concentration: at a concentration of x1, 50 fL; for Expected value λ / Number of positives / Positive ratio: Example 38, EV 2.5 μg/mL, reporter 5 μM, 30° C.
Experimental: The concentration of the solution is 6.7 μg/mL.
100 μL of the MMP14 detection solution was added to 100 μL of the sample to provide a reaction solution for wells. […] 100 μL of 200 μL of the prepared reaction solution for wells was used in the measurement of MMP14 activity with a 96-well plate.
Next, the wells were filled with the reaction solution by leaving the well array 200 to stand under reduced pressure to degas the space 205. After that, the space 205 was fed with hydrophobic solvents to be sealed. Fluorinated oils AsahiKlin AE-3000 (manufactured by AGC Inc.) and Fomblin Y-25 (manufactured by Solvay S.A.) were used as the hydrophobic solvents. A fluorinated oil Simoa (trademark) SR-X Sealing Oil: 102767 (manufactured by Quanterix Corporation) was further used as another hydrophobic solvent.
Well diameter: 4.25 μm Well depth: 3.25 μm Well capacity: 50 fL Number of wells in array: 239,000 Array range: 3 mm×4 mm
The concentration of the solution is 20 μg/mL. […] The concentration of the solution was set to x1, and 10-fold serial dilution was performed to prepare standard samples with five concentrations.
Next, the wells were filled with the reaction solution by leaving the well array 200 to stand under reduced pressure to degas the space 205. After that, the space 205 was fed with hydrophobic solvents to be sealed.
The concentration of the solution is 20 μg/mL. […] The concentration of the solution was set to x1, and 3-fold serial dilution was performed to prepare standard samples with three concentrations.
The concentration of the solution is 20 μg/mL. […] The concentration of the solution was set to x1, and 2-fold serial dilution was performed to prepare standard samples with four concentrations.
The concentration of the solution is 5 μg/mL.
50 μL of the MMP14 detection solution was added to 50 μL of the sample to provide a reaction solution for wells.
50 μL of each of the MMP14 detection solutions was added to 50 μL of the sample to provide a reaction solution for wells.
The concentration of the solution is 6.7 µg/mL.

[7] = 1.25 μM with 1.25 μM Custom #2T
[8] = Example 35, 30° C., EV 0 (free of extracellular vesicles, pseudopositive)
[9] = Example 35, 30° C., EV 1/4 a.u.
[10] = Example 35, 30° C., EV 1/12 a.u.
[11] = Example 35, 30° C., EV 1/36 a.u.
[12] = Example 35, reporter 5 μM, 30° C., EV 1/2 a.u. (5 μg/mL in reaction solution)

Substance | Fluorescence change after 1 hour of reaction at 30° C. [1] | Fluorescence change after 2 hours of reaction at 30° C. [1, 7] | Fluorescence change after 2 hours of reaction at 30° C. ([1]; 5 μM with 5 μM Custom #2T) | Fluorescence change after 1 hour of reaction at 30° C. [2] | Expected value λ [3, 8] | Number of positives [3, 8] | Positive ratio [3, 8] | Expected value λ [3, 9] | Number of positives [3, 9] | Positive ratio [3, 9] | Expected value λ [3, 10] | Number of positives [3, 10] | Positive ratio [3, 10] | Expected value λ [3, 11] | Number of positives [3, 11] | Positive ratio [3, 11] | Extracellular vesicle concentration [3] | Expected value λ (×1) [3] | Expected value λ [3, 12] | Number of positives [3, 12] | further results
QXL520-Arg-Pro-Leu-Ala-Leu-Trp-Arg-Lys(5-FAM)-NH2 (QXL520-RPLALWRK(5FAM)-NH2) [SB9] | 62,330 ΔRFU | 39,228 ΔRFU | 40,247 ΔRFU | 1,775 ΔRFU | 3.56E−05 | 1 | 3.56E−05 | 0.2881 | 7,010 | 0.2503 | 0.01591 | 442 | 0.01579 | 0.01251 | 349 | 0.01243 | 4.7e+10 mL⁻¹ | 2.3593 | 0.9949 | 17,697 | Positive ratio [3, 12]: 0.6302; Expected value λ (×1) ([4]; Example 36, 4 hr): 0.1169; Extracellular vesicle concentration ([4]; Example 36, 4 hr): 2.338e+09 mL⁻¹; Expected value λ (×1) ([4]; Example 36, 24 hr): 0.01093; Extracellular vesicle concentration ([4]; Example 36, 24 hr): 2.185e+08 mL⁻¹; Expected value λ ([4]; 4 hr): 0.05844; Number of positives ([4]; 4 hr): 1,594; Positive ratio ([4]; 4 hr): 0.05677; Expected value λ ([4]; 24 hr): 0.00546; Number of positives ([4]; 24 hr): 153; Positive ratio ([4]; 24 hr): 0.00545
QXL520-Pro-Leu-Ala-Leu-Trp-Ala-Arg-Lys(5-FAM)-NH2 (QXL520-PLALWARK(5FAM)-NH2) [SB2] | 32,088 ΔRFU | 21,733 ΔRFU | 31,832 ΔRFU | 1,154 ΔRFU | 3.56E−05 | 1 | 3.56E−05 | 0.3545 | 8,382 | 0.2985 | 0.1011 | 2,699 | 0.09612 | 0.02931 | 811 | 0.02888 | 5.3e+10 mL⁻¹ | 2.6406 | 1.326 | 20,623 | Positive ratio [3, 12]: 0.7344; Expected value λ (×1) ([4]; Example 36, 4 hr): 0.1343; Extracellular vesicle concentration ([4]; Example 36, 4 hr): 2.685e+09 mL⁻¹; Expected value λ (×1) ([4]; Example 36, 24 hr): 0.00799; Extracellular vesicle concentration ([4]; Example 36, 24 hr): 1.599e+08 mL⁻¹; Expected value λ ([4]; 4 hr): 0.06712; Number of positives ([4]; 4 hr): 1,823; Positive ratio ([4]; 4 hr): 0.06492; Expected value λ ([4]; 24 hr): 0.004; Number of positives ([4]; 24 hr): 112; Positive ratio ([4]; 24 hr): 0.00399
TQ2-YPPRPLLARK(5-FAM) (TQ2-YPPRPLLARK(5FAM)) [Custom #15] |  |  |  |  |  |  |  |  |  |  |  |  |  |  |  |  |  |  |  |  | Fluorescence change after 2 hours of reaction at 30° C. ([5]; Example 37, EV 5 μg/mL, reporter 5 μM, buffer (4)): 16,774 ΔRFU; Fluorescence change after 2 hours of reaction at 30° C. ([5]; MP, 1.25 μM with 5 μM Custom #2TF3): 9,131 ΔRFU; Fluorescence change after 2 hours of reaction at 30° C. ([5]; MP, 2.5 μM with 2.5 μM Custom #2TF3): 10,890 ΔRFU; Expected value λ (×1) ([6]; Example 38, 4 hr): 0.4993; Extracellular vesicle concentration ([6]; Example 38, 4 hr): 9.986e+09 mL⁻¹; Expected value λ (×1) ([6]; Example 38, 24 hr): 1.145; Extracellular vesicle concentration ([6]; Example 38, 24 hr): 2.289e+10 mL⁻¹; Expected value λ ([6]; 4 hr): 0.1248; Number of positives ([6]; 4 hr): 3,295; Positive ratio ([6]; 4 hr): 0.1173; Expected value λ ([6]; 24 hr): 0.2862; Number of positives ([6]; 24 hr): 6,988; Positive ratio ([6]; 24 hr): 0.2489
